Data on 29 compounds can be found in patent US8546579B2, “Bicycloheteroaryl compounds as P2X7 modulators and uses thereof” (Evotec (US) Inc., priority 2006, dated 2013).

This experiment addresses T1, P2X7 receptor (Homo sapiens, UniProt Q99572).
T1 construct: host or cells: THP-1 cells differentiated with LPS and IFN-γ
T1 sequence (Q99572 1-595): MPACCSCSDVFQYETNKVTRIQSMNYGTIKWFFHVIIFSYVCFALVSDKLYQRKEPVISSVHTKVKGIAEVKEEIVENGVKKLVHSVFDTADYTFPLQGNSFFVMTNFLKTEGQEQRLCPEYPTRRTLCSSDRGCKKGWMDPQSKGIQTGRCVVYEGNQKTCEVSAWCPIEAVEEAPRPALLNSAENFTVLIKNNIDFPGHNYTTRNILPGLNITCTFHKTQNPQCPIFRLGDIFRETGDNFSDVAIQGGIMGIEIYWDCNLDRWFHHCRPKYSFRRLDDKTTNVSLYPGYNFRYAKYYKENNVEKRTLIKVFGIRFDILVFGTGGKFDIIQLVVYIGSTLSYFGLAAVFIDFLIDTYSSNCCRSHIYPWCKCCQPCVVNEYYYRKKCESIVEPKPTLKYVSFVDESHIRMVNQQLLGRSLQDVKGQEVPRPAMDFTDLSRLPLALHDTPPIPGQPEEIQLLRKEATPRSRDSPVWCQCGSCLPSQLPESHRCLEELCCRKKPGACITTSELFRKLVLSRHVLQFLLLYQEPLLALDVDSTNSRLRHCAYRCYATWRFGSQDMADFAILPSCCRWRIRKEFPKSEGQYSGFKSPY
Kind of experiment: IL-1β release assay in differentiated THP-1 cells stimulated with BzATP (Example 9). The experiment is classed as cell-based. The conditions noted are these: 0.3 μM compound; differentiated THP-1 cells, BzATP 250 uM; '+' class symbols; read-out: IL-1β % Inhib. @ 0.3 μM. The procedure:
THP-1 cells (ATCC Cat # 285-IF-100) are plated in 96 well plates at a concentration of 200,000 cells per well and allowed to differentiate in RPMI-1640 media (ATCC Cat # 30-2001) containing 10% FBS, 100 IU/mL penicillin, 100 ug/mL streptomycin, 100 ng/mL LPS and 100 ng/mL IFN-γ for 16 hours. Following differentiation, the cells are treated for an additional 2 hours in RPMI-1640 media containing 100 IU/mL penicillin, 100 ug/mL streptomycin and fresh LPS at 100 ng/mL. The cells are then pretreated for 30 minutes with the compound of interest at the appropriate concentration in RPMI media containing 100 IU/mL penicillin, 100 ug/mL streptomycin. Following the pretreatment 2′,3′-O-(4-benzoylbenzoyl)-adenosine 5′-triphosphate (Sigma Aldrich Cat # B6396) is added to a final concentration of 250 uM and the cells are incubated for an additional 45 minutes. 30 uL of cell supernatant is then collected and IL-1β levels determined via ELISA (R&D systems Cat. # HSLB50) according to manufacturer's recommendations using the Tecan Safire plate reader. Background adjusted IL-1β levels of drug treated and non-treated cells are used to calculate the percent inhibition.
The compounds set forth in Table 1 were tested for activity in a cellular model as described herein. Specifically, cells were pretreated with differing amounts of the compound under test and released IL-1β determined as in Example 9, above. Measurements were made and IC50 values, presented in Table 2, below, were determined by fitting the data to a four parameter logistic equation using GraphPad Prism software (GraphPad Software, Inc). The equation may be expressed by the following formula: Y=Bottom+(Top−Bottom)/(1+10^((Log EC50−X)*HillSlope)) Where X is the logarithm of concentration, Y is the response and Y starts at Bottom and goes to Top with a sigmoid shape.
With `Cc1ccc(C)c(CC(=O)Nc2cccc3c(=O)n(Cc4cccnc4)ccc23)c1` [Compound 1077], the inhibition at 0.3 µM was 0 to 25%.
The same measure for `COc1ccc(C(=O)Nc2cccc3c(=O)n(Cc4cccnc4)ccc23)cc1Cl` [Compound 1078]: 0 to 25%.
Turning to `O=C(CCc1ccccc1Cl)Nc1cccc2c(=O)n(Cc3cccnc3)ccc12` [Compound 1079], the inhibition at 0.3 µM was 0 to 25%.
On to `O=C(CCc1ccc2c(c1)OCO2)Nc1cccc2c(=O)n(Cc3cccnc3)ccc12` [Compound 1080], for which the inhibition at 0.3 µM lay within 0 to 25%.
As to `Cc1cc(C(=O)Nc2cccc3c(=O)n(Cc4cccnc4)ccc23)ccc1Cl` [Compound 1081], the inhibition at 0.3 µM is 0 to 25%.
The same measure for `O=C(Nc1cccc2c(=O)n(CC3CCOCC3)ccc12)c1ccccc1Cl` [Compound 1082]: 26 to 50%.
For the compound `O=C(Nc1cccc2c(=O)n(CC3CCOCC3)ccc12)c1ccc(Cl)cc1Cl` [Compound 1083], the inhibition at 0.3 µM is 0 to 25%.
On to `O=C(Nc1cccc2c(=O)n(CC3CCOCC3)ccc12)c1cc(Cl)ccc1Cl` [Compound 1084], for which the inhibition at 0.3 µM is 0 to 25%.
Regarding `Cc1ccccc1C(=O)Nc1cccc2c(=O)n(CC3CCOCC3)ccc12` [Compound 1085], the inhibition at 0.3 µM was 0 to 25%.
Turning to `Cc1cccc(C(=O)Nc2cccc3c(=O)n(CC4CCOCC4)ccc23)c1C` [Compound 1086], the inhibition at 0.3 µM lay within 0 to 25%.
With `Cc1ccc(C(=O)Nc2cccc3c(=O)n(CC4CCOCC4)ccc23)c(C)c1` [Compound 1087], the inhibition at 0.3 µM is 0 to 25%.
For `Cc1ccc(C)c(C(=O)Nc2cccc3c(=O)n(CC4CCOCC4)ccc23)c1` [Compound 1088], the inhibition at 0.3 µM lay within 0 to 25%.
For `COc1cc(OC)cc(C(=O)Nc2cccc3c(=O)n(CC4CCOCC4)ccc23)c1` [Compound 1089], the inhibition at 0.3 µM lay within 0 to 25%.
As to `Cc1cccc(C(=O)Nc2cccc3c(=O)n(CC4CCOCC4)ccc23)c1` [Compound 1090], the inhibition at 0.3 µM lay in the range of 0 to 25%.
As for `CCOc1ccc(C(=O)Nc2cccc3c(=O)n(CC4CCOCC4)ccc23)cc1` [Compound 1091], the figure is 0 to 25%; as for `CC(C)(C)c1ccc(C(=O)Nc2cccc3c(=O)n(CC4CCOCC4)ccc23)cc1` [Compound 1092], 0 to 25%.
Regarding `CC(C(=O)Nc1cccc2c(=O)n(CC3CCOCC3)ccc12)c1ccccc1` (centres unmarked) [Compound 1093], the inhibition at 0.3 µM was in the range of 0 to 25%.
As for `COc1ccccc1CCC(=O)Nc1cccc2c(=O)n(CC3CCOCC3)ccc12` [Compound 1094], the inhibition at 0.3 µM lay in the range of 0 to 25%.
As for `COc1ccc(CCC(=O)Nc2cccc3c(=O)n(CC4CCOCC4)ccc23)cc1` [Compound 1095], the figure is 0 to 25%.
In the case of `O=C(Nc1cccc2c(=O)n(CC3CCOCC3)ccc12)c1cccc2ccccc12` [Compound 1096], the inhibition at 0.3 µM lay in the range of 0 to 25%.
Consider `O=C(Nc1cccc2c(=O)n(CC3CCOCC3)ccc12)c1ccc2ccccc2c1` [Compound 1098], for which the inhibition at 0.3 µM is 0 to 25%.
`COc1ccccc1CC(=O)Nc1cccc2c(=O)n(CC3CCOCC3)ccc12` [Compound 1099]: the inhibition at 0.3 µM lay in the range of 0 to 25%.
As to `COc1ccc(OC)c(CC(=O)Nc2cccc3c(=O)n(CC4CCOCC4)ccc23)c1` [Compound 1100], the inhibition at 0.3 µM was 0 to 25%.
Turning to `Cc1ccccc1CC(=O)Nc1cccc2c(=O)n(CC3CCOCC3)ccc12` [Compound 1101], the inhibition at 0.3 µM is 0 to 25%.
Consider `COc1cccc(CC(=O)Nc2cccc3c(=O)n(CC4CCOCC4)ccc23)c1` [Compound 1102], for which the inhibition at 0.3 µM fell in the range of 0 to 25%.
As to `COc1ccc(CC(=O)Nc2cccc3c(=O)n(CC4CCOCC4)ccc23)cc1OC` [Compound 1103], the inhibition at 0.3 µM fell in the range of 0 to 25%.
The same measure for `Cc1cccc(CC(=O)Nc2cccc3c(=O)n(CC4CCOCC4)ccc23)c1` [Compound 1104]: 0 to 25%; for `COc1ccc(CC(=O)Nc2cccc3c(=O)n(CC4CCOCC4)ccc23)cc1` [Compound 1105]: 0 to 25%; for `CCOc1ccc(CC(=O)Nc2cccc3c(=O)n(CC4CCOCC4)ccc23)cc1` [Compound 1106]: 0 to 25%.
